Structures can show the parent of a compound that is named as a salt. Where two headings read alike, the source gives them in different places.
Legend:
[1] = target: menin/MLL (terbium chelate-labeled menin, FITC-MBM1 peptide) (Homo sapiens (Human), UniProt O00255); experiment: Menin/MLL homogenous time-resolved fluorescence (HTRF) assay; format: binding;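 note: IC50 from percent inhibition of HTRF signal, normalized between wells without competitor and wells with a saturating competitor that displaces FITC-MBM1 from His-tagged menin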
KO-52 cells = experiment: Proliferation assay (spheroid growth, 8 days), KO-52 control cell line; format: cell-based, human; conditions: read-out: spheroid assay_OneTime KO-52 IC50
How it was run: (§1)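 8-day spheroid growth in ultra-low attachment plates; seeding 200 cells (MOLM14, OCI-AML3) or 300 (KO-52); DMSO 0.3%. Day-8 imaging, confluence vs DMSO (0%) and top reference dose (baseline); IC50 by variable-slope fit.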

OCI-AML3 cells = experiment: Proliferation assay (spheroid growth, 8 days), OCI-AML3; format: cell-based, human; conditions: OCI-AML3, 8 days
How it was run: as §1

hERG potassium channel = hERG potassium channel (Homo sapiens (Human), UniProt Q12809); experiment: Effect on membrane potassium current IKr in hERG transfected CHO cells, Protocol 1 (QPatch); format: cell-based
How it was run: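 Whole-cell automated patch clamp on CHO cells stably expressing hERG, held at −80 mV; the value is the tail current at −40 mV after a 2 s step to +60 mV, at pH 7.4 bath and pH 7.2 pipette. After 0.3% DMSO control, compound was applied at 3×10^−7 M, 3×10^−6 M, 10^−5 M and 3×10^−5 M, 5 min each. IC50 comes from a non-linear least-squares fit of block versus vehicle.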

MOLM14 cells = experiment: Proliferation assay (spheroid growth, 8 days), MOLM14; format: cell-based, human; conditions: MOLM14, 8 days, read-out: spheroid assay_OneTime MOLM14 IC50;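 note: spheroid size read as confluence by live-cell imaging, compounds added at a range of concentrations with 0.3% DMSO, DMSO-treated wells = 0%, highest reference dose = low control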
[2] = Metabolic stability in human liver microsomes; format: in vitro ADME; conditions: human liver microsomes 0.5 mg/mL, 1 μM test compound, pH 7.4; for microsomal CLint at 1 μM: read-out: Human LM Clint
Protocol: (§2) 4) Metabolic Stability in Human/Mouse Liver Microsomes
(§3) The objective of this study is to measure in vitro metabolic stability of test compound(s) in human and mouse liver microsomes and provide quantitative information on the rate of metabolic turnover (i.e. determination of the apparent intrinsic clearance of test).
(§4) Test items were prepared at a stock concentration of 10 mM in DMSO. For determination of metabolic turnover, a final working solution was prepared by adding 2 μL of 10 mM DMSO stock solution for test compound or positive control compounds to 198 μL of acetonitrile (100 μM final concentration).
(§5) Incubations were performed as follows: First, liver microsomes were thawed on ice and a master solution containing liver microsomes in 100 mM PBS (phosphate-buffered saline) at pH 7.4 is prepared. Next, the liver microsomes solution was added to the incubation plates and 10 mM NADPH (Nicotinamide-adenine dinucleotide phosphate) was added (MW: 833.4 g/mol; Roche Diagnostics GmbH, Germany. Dissolved in phosphate buffer (100 mmol/L, pH 7.4)). The mixture was mixed for 10 seconds and pre-warmed in the incubation plate at 37° C. for 10 minutes. The metabolic reaction was initiated with the addition of 5 μL of the 100 μM working solution for test compound or positive control compounds to incubation plate (final test item concentration=1 μM). The reaction final mixture should contain 1 mM NADPH, 0.5 mg/mL microsomes protein and 1 μM test compound or positive control compound in 100 mM PBS at pH 7.4. The percentage of organic solvent in incubation mixture is 1% with DMSO ≤0.02%.
(§6) The reaction was quenched by transferring 50 μL of the incubated mixture at selected time points into the quenching plate containing 200 μL of cold methanol. After sampling of all the timepoints the quenching plate was centrifuged at 4000 rpm for 40 minutes to precipitate protein. A total of 90 μL of the supernatant was transferred to an analysis plate and ultra-pure H2O water is added into each well for LC/MS/MS analysis. All incubations and analysis were performed in duplicate.
(§7) All calculations were carried out using Microsoft Excel. The slope value, k, was determined by linear regression of the natural logarithm of the remaining percentage of the parent drug vs. incubation time curve.
(§8) The in vitro half-life (in vitro tin) was determined from the slope value: in vitro t1/2=−(0.693/k)
(§9) Conversion of the in vitro tin (in min) into the in vitro intrinsic clearance (in vitro CLint, in μL/min/mg proteins) was done using the following equation: […]

[3] = Metabolic stability in mouse liver microsomes; format: in vitro ADME; conditions: mouse liver microsomes 0.5 mg/mL, 1 μM test compound, pH 7.4; for microsomal CLint at 1 μM: read-out: Mouse LM Clint
Protocol: as §2, §3, §4, §5, §6, §7, §8, §9

MEIS1 mRNA = MEIS1 mRNA expression assay (Quantigene Singleplex) in MOLM14 cells; format: cell-based, human; conditions: 48 hours incubation;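 note: MEIS1 transcript levels read by probe hybridization and normalized to RPL28 mRNA, with IC50 fitted to fold changes across a rising compound concentration series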
[4] = Mouse PK (in vivo T1/2 and oral bioavailability); conditions: fasted male CD-1 mice, formulating agent HP-β-CD
Protocol: 3) Mouse PK (In Vivo T1/2 and Oral Bioavailability)
In vivo pharmacokinetics (PK) were assessed in fasted male CD-1 mice (age 6-8 weeks) following a single intravenous (IV, 0.5 or 1.0 mg/kg administered at 2.5 ml/kg) or oral (PO, 5 mg/kg administered at 10 ml solution/kg) dose of test article formulated in a 20% (w:vol) HP-β-CD solution or in Pyrogen free water.
Plasma and/or whole blood samples were collected from the dorsal metatarsal vein at desired timepoints via serial capillary microsampling (approx. 0.03 mL) using EDTA as an anticoagulant. Concentrations of compound in the plasma and blood samples were analyzed using a qualified LC-MS/MS method. In silico analysis of main pharmacokinetic parameters was performed using WinNonlin (Phoenix™, version 6.1) or similar software. (Results see Table 4)

hERG = hERG (Homo sapiens (Human), UniProt Q12809); experiment: Effect on membrane potassium current IKr in hERG-transfected HEK293 cells, Protocol 2 (SyncroPatch 384PE); format: cell-based; conditions: Protocol 2, hERG-transfected HEK293 cells
Protocol: 8) Effect on the Membrane Potassium Current IKr in hERG Transfected Cell Lines
The compound, vehicle control and positive control were tested on hERG-transfected HEK293 cells. A human embryonic kidney cell line (HEK293) with a stable transfection of hERG (Zhou Z et al. Biophysical Journal 1998. 74, 230-241; McDonald T. V. et al, Nature 1997. 388, 289-292) was used (University of Wisconsin, Madison, USA). The cells were kept in culture in MEM (Minimum Essential Medium, Gibco) which was supplemented with (amounts indicated added to 500 ml MEM): 5 ml L-Glutamine-Penicillin-Streptomycin (Sigma), 50 ml Fetal Bovine serum (Bio-Whittaker), 5 ml Non-essential Amino Acids 100× (Gibco), 5 ml sodium pyruvate 100 mM (Gibco) and 4 ml geneticin 50 mg/ml (Gibco) using T175 flasks. The cells were incubated at 37° C. in 5% CO2 atmosphere (in air).
Cell Harvesting for Assay
Cells were harvested as described below using Accumax™ (Sigma) as the dissociating reagent. Cells were then resuspended in a mixture of 33% DMEM/F12 (Dulbecco's Modified Eagle Medium/Nutrient Mixture F-12—Sigma) media/67% extracellular physiological solution.
The flasks were washed twice carefully with ˜5-10 ml phosphate buffered saline (PBS) (Gibco™) containing 2 mM EDTA (Ethylenediaminetetraacetic acid) (Sigma). The cells were dissociated using ˜3 ml of Accumax™ (cell detachment solution) and incubated for ˜5 to 10 min. at 37° C. Cold external physiological solution (2-5 ml) was added and the flasks are incubated at ˜4° C. for 5-10 min. Then, the cell suspension in each flask was gently dissociated with a 5 ml pipette. The cell suspension was transferred to a low binding petri-dish (˜[…]). Each flask was washed with ˜additional 5 ml cold external physiological solution and this solution was also added to the petri-dish. The petri-dish was then incubated for another 5 to 10 minutes at ˜4° C. After another gentle dissociation of the cell suspension in the petri dish, the cells were transferred to a reservoir kept on an orbital shaker at 200 rpm at 16° C. Before experiments were performed, the cells recovered for ˜20 min.
A 10 mM solution of the compound was used and plated in a 384 well plate. Aliquots of the stock solutions are diluted with the recording solution (see section 3) using automated liquid handling (Biomek FXP; final DMSO concentration: 0.03 to 0.3%). A standard range of screening concentrations was used ranging from 1 μM to 30 μM.
A positive control (E-4031) was included within each run to evaluate the sensitivity of the assay.
External and Intracellular Solutions Used in the Experiments
In the table below the composition of the intracellular and external buffer solutions is shown in [mM] (“NMDG” means N-methyl-D-glucamine)
The whole cell patch clamp technique on transfected cells allows the study of ion-channels with no—or limited interference from other ion-channels. The effects of the compounds on the hERG current were studied with an automated planar patch clamp system, SyncroPatch 384PE (Obergrussberger et al, Journal of Laboratory Automation 2016. 21 (6). 779-793). All cells were recorded in the whole cell mode of the patch clamp technique. The module is incorporated in a liquid handling pipetting robot system, Biomek FXP, for application of cells and compounds, vehicle control and positive control.
The different concentrations of the compounds were applied in two cumulatively increasing concentrations for the compounds (1 μM and 10 μM, and 3 μM and 30 μM, respectively). The hERG current was determined as the maximal tail current at −30 mV and percent inhibition upon compound or vehicle and positive control addition was reported.
After cells are caught onto the individual holes of the recording chips using the chip fill solution, the seal is increased with the seal enhancer solution (increased [Ca^2+]; then the cells were washed twice with recording solution before using a pressure protocol to go into the whole cell mode. […]

[5] = read-out: HTRF-30 min incubation IC50, 30 min incubation
[6] = HTRF-30 min incubation IC50, 30 min incubation

Sequence of menin/MLL (terbium chelate-labeled menin, FITC-MBM1 peptide) (O00255 other isoform, or with tags, fused parts or gaps): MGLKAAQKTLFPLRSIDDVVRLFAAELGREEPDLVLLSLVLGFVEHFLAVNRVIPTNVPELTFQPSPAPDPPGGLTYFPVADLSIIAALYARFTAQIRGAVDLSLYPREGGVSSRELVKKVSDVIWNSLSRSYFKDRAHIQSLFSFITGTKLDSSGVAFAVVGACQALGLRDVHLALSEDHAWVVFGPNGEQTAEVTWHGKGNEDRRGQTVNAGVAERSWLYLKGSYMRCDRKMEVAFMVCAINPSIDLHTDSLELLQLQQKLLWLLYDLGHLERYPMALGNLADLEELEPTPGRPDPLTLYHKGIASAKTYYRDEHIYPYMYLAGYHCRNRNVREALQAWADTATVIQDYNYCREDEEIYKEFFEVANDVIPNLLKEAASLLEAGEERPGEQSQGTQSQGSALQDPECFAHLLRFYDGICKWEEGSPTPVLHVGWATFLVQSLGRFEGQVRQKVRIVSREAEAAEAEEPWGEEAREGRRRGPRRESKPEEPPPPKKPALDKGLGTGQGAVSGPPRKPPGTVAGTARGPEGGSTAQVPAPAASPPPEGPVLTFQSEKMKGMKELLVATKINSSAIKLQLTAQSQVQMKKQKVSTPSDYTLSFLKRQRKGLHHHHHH
Sequence of hERG potassium channel (Q12809 whole entry): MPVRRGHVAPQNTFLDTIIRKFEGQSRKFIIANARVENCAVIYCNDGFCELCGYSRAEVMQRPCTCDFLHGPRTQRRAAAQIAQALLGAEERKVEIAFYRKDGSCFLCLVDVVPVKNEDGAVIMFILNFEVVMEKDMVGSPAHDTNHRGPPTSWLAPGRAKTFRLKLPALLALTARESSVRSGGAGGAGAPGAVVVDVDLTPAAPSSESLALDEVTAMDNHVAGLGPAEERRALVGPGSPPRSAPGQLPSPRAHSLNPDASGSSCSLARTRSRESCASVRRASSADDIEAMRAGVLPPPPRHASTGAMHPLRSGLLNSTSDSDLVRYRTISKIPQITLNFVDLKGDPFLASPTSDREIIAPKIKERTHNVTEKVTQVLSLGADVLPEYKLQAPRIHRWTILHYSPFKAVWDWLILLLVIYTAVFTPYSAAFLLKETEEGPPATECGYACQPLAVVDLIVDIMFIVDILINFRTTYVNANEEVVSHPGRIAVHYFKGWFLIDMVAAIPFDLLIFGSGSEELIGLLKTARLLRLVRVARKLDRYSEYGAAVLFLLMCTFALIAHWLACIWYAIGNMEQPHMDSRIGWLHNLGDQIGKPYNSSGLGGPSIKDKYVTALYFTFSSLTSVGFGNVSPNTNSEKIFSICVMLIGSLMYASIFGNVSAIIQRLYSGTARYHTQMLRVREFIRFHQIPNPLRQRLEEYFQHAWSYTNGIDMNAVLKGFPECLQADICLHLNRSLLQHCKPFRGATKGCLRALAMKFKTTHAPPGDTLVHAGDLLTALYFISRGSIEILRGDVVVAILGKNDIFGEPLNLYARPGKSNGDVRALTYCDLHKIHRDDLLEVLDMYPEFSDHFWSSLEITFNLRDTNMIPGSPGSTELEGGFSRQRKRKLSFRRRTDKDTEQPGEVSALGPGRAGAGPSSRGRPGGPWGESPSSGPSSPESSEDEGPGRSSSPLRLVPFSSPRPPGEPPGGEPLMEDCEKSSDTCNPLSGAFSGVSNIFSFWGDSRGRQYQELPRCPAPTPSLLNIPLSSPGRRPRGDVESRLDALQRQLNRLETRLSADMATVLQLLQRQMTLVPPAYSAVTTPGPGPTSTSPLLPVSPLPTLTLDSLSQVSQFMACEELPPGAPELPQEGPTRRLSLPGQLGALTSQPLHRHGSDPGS
Sequence of hERG (Q12809 whole entry): as above

Structure (SMILES)	IC50 [1, 5]	IC50 (KO-52 cells)	IC50 (OCI-AML3 cells)	IC50 (hERG potassium channel)	IC50 (MOLM14 cells)	Human LM Clint [2]	Mouse LM Clint [3]	IC50 (MEIS1 mRNA)	IC50 [1, 6]	IC50 (KO-52 cells; Homo sapiens, […])	IC50 (OCI-AML3 cells; Homo sapiens, OCI-AML-3, […])	IC50 (MOLM14 cells; Homo sapiens, MOLM-14, […])	half-life ([4]; single IV 0.5 or 1.0 mg/kg)	bioavailability ([4]; single PO 5 mg/kg)	microsomal CLint at 1 μM [2]	microsomal CLint at 1 μM [3]	IC50 (MEIS1 mRNA; Homo sapiens, MOLM-14, 48 h)	IC50 (hERG)
CNC(=O)CC[C@@H](C(C)C)N1CC2(CCN(c3ncnnc3Oc3ccc(F)cc3-c3cncnc3C3CC3)C2)C1 (single isomer, unassigned) [Compound 45, (*S)-4-(6-(6-(2-(4-cyclopropylpyrimidin-5-yl)-4-fluorophenoxy)-1,2,4-triazin-5-yl)-2,6-diazaspiro[3.4]octan-2-yl)-N,5-dimethylhexanamide]	0.37 nM	> 15000 nM	1250 nM	12600 nM	220 nM	43 µL/min/mg	110 µL/min/mg	210 nM	–	–	–	–	–	–	–	–	–	–
CCN(C(=O)c1cc(F)ccc1Oc1nncnc1N1CCC2(C1)CN([C@H](CCCO)C(C)C)C2)C(C)C (single isomer, unassigned) [Compound 47, (*R)—N-ethyl-5-fluoro-2-((5-(2-(6-hydroxy-2-methylhexan-3-yl)-2,6-diazaspiro[3.4]octan-6-yl)-1,2,4-triazin-6-yl)oxy)-N-isopropylbenzamide]	0.31 nM	10800 nM	600 nM	> 30200 nM	220 nM	38 µL/min/mg	47 µL/min/mg	140 nM	–	–	–	–	–	–	–	–	–	–
CCN(C)C[C@H](O)C[C@H](C(C)C)N1CC2(CCN(c3ncnnc3Oc3ccc(F)cc3C(=O)N(CC)C(C)C)C2)C1.O=C(O)/C=C/C(=O)O (single isomer, unassigned) [Compound 346, N-ethyl-2-((5-(2-((3*R,5R)-6-(ethyl(methyl)amino)-5-hydroxy-2-methylhexan-3-yl)-2,6-diazaspiro[3.4]octan-6-yl)-1,2,4-triazin-6-yl)oxy)-5-fluoro-N-isopropylbenzamide fumarate]	–	–	–	–	–	–	–	–	0.058 nM	> 15000 nM	130 nM	36 nM	5.2 h	5.1%	11 µL/min/mg	< 7.5 µL/min/mg	33 nM	–
CC(C)[C@@H](CCCN(C)C)N1CC2(CCN(c3ncnnc3Oc3ccc(F)cc3C(=O)N(C(C)C)C(C)C)C2)C1 (single isomer, unassigned) [Compound 396, (*R)-2-((5-(2-(6-(dimethylamino)-2-methylhexan-3-yl)-2,6-diazaspiro[3.4]octan-6-yl)-1,2,4-triazin-6-yl)oxy)-5-fluoro-N,N-diisopropylbenzamide oxalate]	–	–	–	> 30200 nM	–	–	–	–	0.08 nM	8510 nM	140 nM	23 nM	–	–	22 µL/min/mg	< 7.5 µL/min/mg	17 nM	–
CCN(C(=O)c1cc(F)ccc1Oc1nncnc1N1CCC2(C1)CN([C@H](CCCN(C)CCC#N)C(C)C)C2)C(C)C [Compound 13]	–	–	–	25700 nM	–	–	–	–	0.4 nM	> 15000 nM	210 nM	61 nM	–	–	75 µL/min/mg	44 µL/min/mg	77 nM	–
O=C(O)/C=C/C(=O)O.[2H]C([2H])(COC)N(C)CCC[C@H](C(C)C)N1CC2(CCN(c3ncnnc3Oc3ccc(F)cc3C(=O)N(CC)C(C)C)C2)C1 [Compound 233, (R)-N-ethyl-5-fluoro-N-isopropyl-2-((5-(2-(6-((2-methoxyethyl-1,1-d2)(methyl)amino)-2-methylhexan-3-yl)-2,6-diazaspiro[3.4]octan-6-yl)-1,2,4-triazin-6-yl)oxy)benzamide fumarate]	–	–	–	–	–	–	–	–	–	5030 nM	150 nM	26 nM	–	–	–	–	–	> 30200 nM

Reference: patent publication US12473295B2, “Substituted straight chain spiro derivatives” (Janssen Pharmaceutica NV, priority 2019, dated 2025)
